Measurements taken from US7259004B1, “Endophytic streptomycetes from higher plants with biological activity” (Montana State University, priority 2002, dated 2007).
≈ marks a conversion by molar mass, not a printed value.

What was measured:
Candida albicans = test: microbroth dilution MIC
Cryptococcus neoformans = test: microbroth dilution MIC
Aspergillus fumigatus = test: microbroth dilution MIC
[1] = tested on: Plasmodium falciparum strain CSC-1 (Honduras); test: antimalarial assay, 3H-phenylalanine radiobioassay in human red blood cells; conditions: for IC50 Plasmodium falciparum: human red blood cells, 3H-phenylalanine, standard deviation of the mean, three experiments
[2] = tested on: Human Cervical Cancer Epithelial ME180; test: CellTiter 96 Aqueous Non-Radioactive Cell Proliferation Assay; type: cell-based; conditions: 48 hours, Table 7
Protocol: (§1) The munumbicins were then tested against three human cancer cell lines (ATCC) and human primary mammary epithelial cells (HMECs) (Clonetics; Biowhittaker, Walkersville, Md.) using a CellTiter 96® Aqueous Non-Radioactive Cell Proliferation Assay kit from Promega (Madison, Wis.). The cell lines were A-549 (lung epithelial carcinoma, ATCC CCL-185), ME-180 (cervical epithelial epidermoid carcinoma, ATCC HTB-33), and BT-20 (breast epithelial cancer, ATCC HTB-19), and were grown in the media recommended by ATCC. The primary mammary cells were cultured as recommended by the manufacturer in mammary epithelial cell growth media (MEGM®). […] After seeding, the cells were incubated for five hours at 37° C. before addition of the munumbicins. Two-fold serial dilutions of the munumbicins were made in the culture medium, and a volume equal to that of the seeded cells for each dilution was added to three wells of cells. Each plate also contained some wells with cells plus medium only and some wells with medium only. […] The A-549 and ME-180 cells were incubated for 48 hours. […] The plates were incubated at 37° C. for one to four hours, and the OD490 was determined. The OD reading of all wells was corrected for background by subtracting the reading of wells containing medium only. […] Kakadumycin A was tested against three human cancer cell lines (ATCC) and human primary mammary epithelial cells using the procedure described above for the munumbicins. Kadadumycin B was tested against one human cancer cell line.

[3] = tested on: Human Lung Cancer Epithelial A549; test: as above; type: cell-based; conditions: 48 hours, Table 7
Protocol: as §1

[4] = tested on: Candida glabrata ATCC 2001; test: disk diffusion assay; type: cell-based; on diameter of the zone of inhibition, Candida glabrata ATCC 2001: key: R = resistant
[5] = tested on: Saccharomyces cerevisiae ATCC 9763; test: disk diffusion assay; type: cell-based; conditions: A3-5-1 10 micrograms; Flucytosine 10 micrograms; RPMI-glucose agar 35° C.
Candida krusei ATCC 6258 = test: disk diffusion assay; type: cell-based
[6] = tested on: Candida albicans ATCC 90028; test: disk diffusion assay; type: cell-based; on diameter of the zone of inhibition, Candida albicans ATCC 90028: key: R = resistant
[7] = tested on: Candida parasilosis ATCC 22019; test: disk diffusion assay; type: cell-based, Candida parapsilosis; on diameter of the zone of inhibition, Candida parasilosis ATCC 22019: key: R = resistant
[8] = tested on: Candida albicans ATCC 24433; test: disk diffusion assay; type: cell-based; on diameter of the zone of inhibition, Candida albicans ATCC 24433: key: R = resistant
[9] = tested on: Cryptococcus neoformans ATCC 32045; test: disk diffusion assay; type: cell-based; conditions: A3-5-1 10 micrograms; Flucytosine 10 micrograms; RPMI-glucose agar 35° C.
[10] = tested on: Candida parasdosis ATCC 90018; test: disk diffusion assay; type: cell-based, Candida parapsilosis; on diameter of the zone of inhibition, Candida parasdosis ATCC 90018: key: R = resistant
[11] = tested on: Candida tropicalis ATCC 750; test: disk diffusion assay; type: cell-based; on diameter of the zone of inhibition, Candida tropicalis ATCC 750: key: R = resistant
[12] = tested on: M. tuberculosis H37Rv (ATCC 25618) (drug sensitive); test: IC50 in Mycobacteria 7H11 agar; type: cell-based, Mycobacterium tuberculosis; conditions: Mycobacterium tuberculosis; 7H11 agar with 10% OADC
[13] = tested on: RNA synthesis in Bacillus subtilis; test: macromolecular synthesis whole cell assay, [3H]uridine incorporation; type: cell-based; conditions: 1×MIC
B. subtilis 1A757 = test: microbe, parasite or virus in culture; type: cell-based, Bacillus subtilis
[14] = tested on: Cell wall synthesis in Bacillus subtilis; test: macromolecular synthesis whole cell assay, [3H]N-acetyl glucosamine incorporation; type: cell-based; conditions: 1×MIC
[15] = tested on: Enterococcus faecium ATCC 49624; test: disk diffusion assay; type: cell-based; conditions: 10 micrograms per disk; ciprofloxacin 5, vancomycin 30 micrograms per disk; 35° C.
[16] = tested on: Enterococcus faecium ATCC 51559; test: disk diffusion assay; type: cell-based; conditions: 10 micrograms per disk; ciprofloxacin 5, vancomycin 30 micrograms per disk; 35° C.
[17] = tested on: Pseudomonas aeruginosa ATCC 27853; test: disk diffusion assay; type: cell-based; conditions: 10 micrograms per disk; ciprofloxacin 5, vancomycin 30 micrograms per disk; 35° C. Further: key: R = resistant.
S. epidermis ATCC 12228 = test: disk diffusion assay; type: cell-based, Staphylococcus epidermidis; conditions: 10 micrograms per disk; 35° C.
[18] = tested on: S. maltophilia ATCC 13637; test: disk diffusion assay; type: cell-based, Stenotrophomas maltophilia; conditions: 10 micrograms per disk; 35° C.
Vibrio fischeri PIC 345 = test: disk diffusion assay; type: cell-based; conditions: 10 micrograms per disk; ciprofloxacin 5, vancomycin 30 micrograms per disk; 35° C.
[19] = tested on: Escherichia coli ATCC 25922; test: disk diffusion assay; type: cell-based; conditions: 10 micrograms per disk; penicillin G 10 units per disk; 35° C. Further: key: R = resistant.
[20] = tested on: Human Breast Cancer Epithelial BT-20; test: CellTiter 96 Aqueous Non-Radioactive Cell Proliferation Assay; type: cell-based; conditions: 96-144 hours; Table 7
Protocol: as §1

[21] = tested on: Human Primary Mammary Epithelial HMEC; test: as above; type: cell-based; conditions: 48 hours; Table 7
Protocol: as §1

[22] = tested on: Staphylococcus aureus ATCC 29213; test: disk diffusion assay; type: cell-based; conditions: 10 micrograms per disk; ciprofloxacin 5, vancomycin 30 micrograms per disk; 35° C.
brine shrimp = brine shrimp assays; conditions: preliminary assays
[23] = tested on: Shigella dysenteriae ATCC 11835; test: disk diffusion assay; type: cell-based; conditions: 10 micrograms per disk; 35° C.
Phytophthora cinnamomi = test: microbroth dilution MIC, plant associated microorganisms; type: cell-based; conditions: PD broth, 48 hours at 23° C.
Protocol: (§2) Incubation was for 48 hours at 23° C. A plant pathogenic strain of Pseudomonas syringae was also tested using the same PD broth medium and with concentrations of colony forming units as given above. The organisms were obtained from the Montana State University plant pathogen culture collection administered by Dr. […] The relative activities against plant pathogenic fungi ranged from a few tenths of a microgram up to thirty micrograms. Table 2 provides the results of tests of inhibitory activity of the munumbicins against various plant-pathogenic fungi and one pathogenic bacterium. The data are reported as MIC values in micrograms/ml.

Rhizoctonia solani = test: as above; type: cell-based; conditions: PD broth, 48 hours at 23° C.
Protocol: as §2

Pythium ultimum = test: as above; type: cell-based; conditions: PD broth, 48 hours at 23° C.
Protocol: as §2

Pseudomonas syringae = test: as above; type: cell-based; conditions: PD broth
Protocol: as §2

Sclerotinia sclerotiorum = test: as above; type: cell-based; conditions: PD broth, 48 hours at 23° C.
Protocol: as §2

Geotrichum candidum = test: as above; type: cell-based; conditions: PD broth, 48 hours at 23° C.
Protocol: as §2

[24] = tested on: Enterococcus faecalis ATCC 51299; test: disk diffusion assay; type: cell-based; conditions: 10 micrograms per disk; ciprofloxacin 5, vancomycin 30 micrograms per disk; 35° C.
[25] = tested on: Streptococcus pneumoniae ATCC 49619; test: disk diffusion assay; type: cell-based; conditions: 10 micrograms per disk; ciprofloxacin 5, vancomycin 30 micrograms per disk; MHA with 5% dsb. and 5% CO2
[26] = tested on: Staphyloccus aureus MH II Eli Lilly Co.; test: microbroth dilution MIC; conditions: drug sensitive strain
[27] = tested on: Neisseria gonnorhea ATCC 49226; test: disk diffusion assay; type: cell-based; conditions: 10 micrograms per disk; ciprofloxacin 5, vancomycin 30 micrograms per disk; GC agar with 1% growth supplement with 5% CO2
[28] = tested on: Enterococcus faecalis ATCC 29212; test: disk diffusion assay; type: cell-based; conditions: 10 micrograms per disk; ciprofloxacin 5, vancomycin 30 micrograms per disk; 35° C.
[29] = tested on: Acinetobacter sp. ATCC 49137; test: disk diffusion assay; type: cell-based; conditions: 10 micrograms per disk; ciprofloxacin 5, vancomycin 30 micrograms per disk; grown at 30° C.
[30] = A3-5-1 10 micrograms, Flucytosine 10 micrograms, RPMI-glucose agar 35° C.

C[C@@H]1[C@H](O)[C@@H](C)/C=C/C=C/C=C/C=C/C=C/C=C/C=C/[C@H](O[C@@H]2O[C@H](C)[C@@H](O)[C@H](N)[C@@H]2O)C[C@@H]2O[C@](O)(C[C@@H](O)C[C@@H](O)[C@H](O)CC[C@@H](O)C[C@@H](O)CC(=O)O[C@H]1C)C[C@H](O)[C@H]2C(=O)O [Amphotericin B, reference compound]
MIC Candida albicans (Candida albicans): 1.25 micrograms/ml | MIC Cryptococcus neoformans (Cryptococcus neoformans): 0.13 micrograms/ml | MIC Aspergillus fumigatus (Aspergillus fumigatus): 0.62 micrograms/ml

CCN(CC)CCCC(C)Nc1ccnc2cc(Cl)ccc12 (stereo not drawn) [Chloroquine, reference compound]
IC50 ([1]; Plasmodium falciparum, Erythrocyte, read-out: IC50 Plasmodium falciparum): 7 ng/mL (≈ 0.0219 µM) | IC50 Plasmodium falciparum [1]: 7.0 ± 0 ng/mL (≈ 0.0219 µM)

CC[C@H]1OC(=O)[C@H](C)[C@@H](O[C@H]2C[C@@](C)(OC)[C@@H](O)[C@H](C)O2)[C@H](C)[C@@H](O[C@@H]2O[C@H](C)C[C@H](N(C)C)[C@H]2O)[C@](C)(O)C[C@@H](C)C(=O)[C@H](C)[C@@H](O)[C@]1(C)O [Erythromycin, reference compound]
IC50 ([2]; Homo sapiens, ME-180, read-out: IC50 Human Cervical Cancer Epithelial ME180): > 40000 ng/mL | IC50 ([3]; Homo sapiens, A549, read-out: IC50 Human Lung Cancer Epithelial A549): > 40000 ng/mL

Nc1[nH]c(=O)ncc1F [Flucytosine, reference compound]
Disk Diffusion, Candida glabrata 2001 [4, 30]: 53 mm | Disk Diffusion, Saccharomyces cerevisiae 9763 [5]: 50 mm | Disk Diffusion, Candida krusei 6258 (Candida krusei ATCC 6258; [30]): 7 mm | Disk Diffusion, Candida albicans 90028 [6, 30]: 37 mm | Disk Diffusion, Candida parapsilosis 22019 [7, 30]: 46 mm | Disk Diffusion, Candida albicans 24433 [8, 30]: 20 mm | Disk Diffusion, Cryptococcus neoformans 32045 [9]: 42 mm | Disk Diffusion, Candida parapsilosis 90018 [10, 30]: 57 mm | Disk Diffusion, Candida tropicalis 750 [11, 30]: 47 mm

CO[C@H]1/C=C/O[C@@]2(C)Oc3c(C)c(O)c4c(O)c(c(/C=N/N5CCN(C)CC5)c(O)c4c3C2=O)NC(=O)/C(C)=C\C=C\[C@H](C)[C@H](O)[C@@H](C)[C@@H](O)[C@@H](C)[C@H](OC(C)=O)[C@@H]1C [Rifampicin, reference compound]
IC50 [12]: < 1000 ng/mL | % [3H]uridine (RNA synthesis) incorporation of that of the untreated culture ([13]; 5 min): 13% | % [3H]uridine (RNA synthesis) incorporation of that of the untreated culture ([13]; 10 min): 15% | 1×MIC against Bacillus subtilis (B. subtilis 1A757): 0.25 micrograms/ml | % [3H]N-acetyl glucosamine (Cell wall synthesis) incorporation of that of the untreated culture ([14]; 5 min): 47% | % [3H]N-acetyl glucosamine (Cell wall synthesis) incorporation of that of the untreated culture ([14]; 10 min): 48%

Penicillin
diameter of the zone of inhibition, Enterococcus faecium ATCC 49624 [15]: 21 mm | diameter of the zone of inhibition, Enterococcus faecium ATCC 51559 [16]: 0 mm

munumbicin D
diameter of the zone of inhibition, Pseudomonas aeruginosa ATCC 27853 [17]: R | diameter of the zone of inhibition, S. epidermis ATCC 12228 (S. epidermis ATCC 12228): 14 mm | diameter of the zone of inhibition, Candida glabrata ATCC 2001 ([4]; 10 micrograms per disk, 35° C.): R | diameter of the zone of inhibition, S. maltophilia ATCC 13637 [18]: R | diameter of the zone of inhibition, Vibrio fischeri PIC 345 (Vibrio fischeri PIC 345): 12 mm | diameter of the zone of inhibition, Escherichia coli ATCC 25922 [19]: R | concentration causing detectable lysis of human red blood cells (human red blood cells): > 80 micrograms/ml | IC50 Human Breast Cancer Epithelial BT-20 [20]: 0.07 micrograms/ml | IC50 Human Primary Mammary Epithelial HMEC [21]: 0.425 micrograms/ml | IC50 Human Cervical Cancer Epithelial ME180 [2]: 0.2 micrograms/ml | IC50 Human Lung Cancer Epithelial A549 [3]: 2.6 micrograms/ml | diameter of the zone of inhibition, Candida krusei ATCC 6258 (Candida krusei ATCC 6258; 10 micrograms per disk, 35° C.): R | diameter of the zone of inhibition, Staphylococcus aureus ATCC 29213 [22]: 13 mm | LC50 brine shrimp (brine shrimp): 1.7 micrograms/ml | diameter of the zone of inhibition, Shigella dysenteriae ATCC 11835 [23]: R | diameter of the zone of inhibition, Candida albicans ATCC 90028 ([6]; 10 micrograms per disk, 35° C.): R | MIC Candida albicans (Candida albicans): >10 micrograms/ml | MIC Phytophthora cinnamomi (Phytophthora cinnamomi): 15.6 micrograms/ml | MIC Rhizoctonia solani (Rhizoctonia solani): 15.6 micrograms/ml | MIC Pythium ultimum (Pythium ultimum): 0.4 micrograms/ml | MIC Pseudomonas syringae (Pseudomonas syringae): 0.2 micrograms/ml | MIC Sclerotinia sclerotiorum (Sclerotinia sclerotiorum): 2.0 micrograms/ml | MIC Geotrichum candidum (Geotrichum candidum): 31.2 micrograms/ml | diameter of the zone of inhibition, Enterococcus faecalis ATCC 51299 [24]: 16 mm | diameter of the zone of inhibition, Candida parasilosis ATCC 22019 ([7]; 10 micrograms per disk, 35° C.): R | MIC Cryptococcus neoformans (Cryptococcus neoformans): 10 micrograms/ml | IC50 Plasmodium falciparum [1]: 4.5 ± 0.7 ng/mL | diameter of the zone of inhibition, Streptococcus pneumoniae ATCC 49619 [25]: 16 mm | MIC Staphyloccus aureus MH II Eli Lilly Co. [26]: 0.4 micrograms/ml | diameter of the zone of inhibition, Candida albicans ATCC 24433 ([8]; 10 micrograms per disk, 35° C.): R | MIC Aspergillus fumigatus (Aspergillus fumigatus): 20 micrograms/ml | diameter of the zone of inhibition, Neisseria gonnorhea ATCC 49226 [27]: 9 mm | diameter of the zone of inhibition, Candida parasdosis ATCC 90018 ([10]; 10 micrograms per disk, 35° C.): R | diameter of the zone of inhibition, Candida tropicalis ATCC 750 ([11]; 10 micrograms per disk, 35° C.): R | diameter of the zone of inhibition, Enterococcus faecalis ATCC 29212 [28]: 16 mm | diameter of the zone of inhibition, Acinetobacter sp. ATCC 49137 [29]: R
